# Assay results taken from US7468392B1, “Anti-fatigue cyclohexenone compounds from antrodia camphorata” (Golden Biotechnology Corporation, priority 2007, dated 2008).
# Columns and labels:
# healthy male volunteers [1] = assay: Free fatty acid levels before/after exhaustive exercise at 80% VO2max; format: in vivo, human; conditions: for levels of free fatty acid: plasma, Mean, n = 15; for effect of supplementation after exercise on metabolism of free fatty acid: exhaustive exercise at 80% VO2max, versus placebo
# Method: (§1) The present invention is based on supplementing cyclohexenone of Antrodia camphorata or placebo with no cyclohexenone of Antrodia camphorata to the subjects. The subjects were tested for the anti-fatigue function after supplementing cyclohexenone of Antrodia camphorata by measuring the amounts of fatigue indexes such as CPK, lactic acid, glucose, ammonia and free fatty acid before and after exhaustive exercise load at 80% VO2max.
# (§2) Subjects were randomized to receive either cyclohexenone of Antrodia camphorata or placebo. Placebo contained substances such as cornstarch but no cyclohexenone of Antrodia camphorata. A double-blind, cross-over method was performed in this study where neither the evaluator nor the subject knew the content of the test substances. Based on rules of order balance, each subject have to receive the following tests: relaxing and receiving placebo (PR), exercising and receiving placebo (PE), relaxing and receiving cyclohexenone of Antrodia camphorata (DR), and exercising and receiving cyclohexenone of Antrodia camphorata (DE). Each test was carried out for one week, and took one week off before the next test until all 4 tests were performed in each subject. The exercise was performed on a treadmill with the load intensity at the measured 80% VO2max (7.61±1.87) until exhausted. Subjects received cyclohexenone of Antrodia camphorata or placebo after exercise in the amount of 0.2 g/kg body weight per day. […] Blood was collected in anticoagulant (such as EDTA) containing collection tubes, and was centrifuged at 3000 g. for 10 min to collect the plasma. The fatigue indexes such as CPK, lactic acid, glucose, ammonia and free fatty acid were analyzed accordingly. The physiological and biochemical changes before and after exercise with different supplements were compared and shown as values of mean and standard error (Mean±SEM). […] The details for the biochemical analysis and results are described below:
# The measurement of free fatty acid level was performed based on enzyme function and spectrophotometric theory. Acyl CoA synthetase and acyl CoA oxidase were added into a defined amount of plasma for reaction. A purple product was formed through activities of peroxidase. The reactions are shown below:
# The absorbance at 550 nm was measured to obtain the concentration of free fatty acid.
# healthy male volunteers [2] = assay: Lactate levels in blood before/after exhaustive exercise at 80% VO2max; format: in vivo, human; conditions: for blood lactate levels: plasma, Mean, n = 15; for effect of supplementation after exercise on metabolism of blood lactate: exhaustive exercise at 80% VO2max, versus placebo
# Method: as §1, §2
# The measurement of blood lactate was performed with an automated blood analyzer using dry chemistry method (Johnson & Johnson DT-60II) based on enzyme function and spectrophotometric theory. Lactate oxidase was added into a defined amount of plasma for reaction, followed by addition of 4-aminoantipyrine and 1,7-dihydroxynaphthalene. A red product was formed through activities of peroxidase. The reactions are shown below:
# The absorbance at 540 nm was measured to obtain the concentration of blood lactate.
# [3] = Relax (DR), Post-exercise 0.5 h
# [4] = Relax (DR), Post-exercise 120 h
# [5] = Relax (DR), Post-exercise 168 h
# [6] = exercise (DE), Post-exercise 0 h
# [7] = exercise (DE), Post-exercise 0.5 h
# [8] = exercise (DE), Post-exercise 1 h
# [9] = exercise (DE), Post-exercise 2 h
# [10] = exercise (DE), Post-exercise 24 h
# [11] = exercise (DE), Post-exercise 48 h
# [12] = exercise (DE), Post-exercise 72 h
# [13] = exercise (DE), Post-exercise 120 h
# [14] = exercise (DE), Post-exercise 168 h
# [15] = exercise (DE), Prior to exercise
# [16] = listed as cyclohexenone from Antrodia camphorata
# [17] = listed as cyclohexenone of Antrodia camphorata
smiles,measurement,setting,value
"COC1=C(OC)C(O)C(C/C=C(\C)CC/C=C(\C)CCC=C(C)C)C(C)C1=O (centres unmarked) [cyclohexenone, 4-hydroxy-2,3-dimethoxy-6-methyl-5(3,7,11-trimethyl-dodeca-2,6,10-trienyl)-cyclohex-2-enone]",levels of free fatty acid,"healthy male volunteers [1]; Relax (DR), Post-exercise 0 h",0.33 mM
same,levels of free fatty acid,healthy male volunteers [1]; [3],0.34 mM
same,levels of free fatty acid,"healthy male volunteers [1]; Relax (DR), Post-exercise 1 h",0.3 mM
same,levels of free fatty acid,"healthy male volunteers [1]; Relax (DR), Post-exercise 2 h",0.23 mM
same,levels of free fatty acid,"healthy male volunteers [1]; Relax (DR), Post-exercise 24 h",0.28 mM
same,levels of free fatty acid,"healthy male volunteers [1]; Relax (DR), Post-exercise 48 h",0.29 mM
same,levels of free fatty acid,"healthy male volunteers [1]; Relax (DR), Post-exercise 72 h",0.31 mM
same,levels of free fatty acid,healthy male volunteers [1]; [4],0.48 mM
same,levels of free fatty acid,healthy male volunteers [1]; [5],0.28 mM
same,levels of free fatty acid,"healthy male volunteers [1]; Relax (DR), Prior to exercise",0.38 mM
same,levels of free fatty acid,healthy male volunteers [1]; [6],0.91 mM
same,levels of free fatty acid,healthy male volunteers [1]; [7],0.6 mM
same,levels of free fatty acid,healthy male volunteers [1]; [8],0.61 mM
same,levels of free fatty acid,healthy male volunteers [1]; [9],0.59 mM
same,levels of free fatty acid,healthy male volunteers [1]; [10],0.41 mM
same,levels of free fatty acid,healthy male volunteers [1]; [11],0.28 mM
same,levels of free fatty acid,healthy male volunteers [1]; [12],0.44 mM
same,levels of free fatty acid,healthy male volunteers [1]; [13],0.3 mM
same,levels of free fatty acid,healthy male volunteers [1]; [14],0.32 mM
same,levels of free fatty acid,healthy male volunteers [1]; [15],0.34 mM
same,effect of supplementation after exercise on metabolism of free fatty acid,healthy male volunteers [1]; [16],did not affect the metabolism of free fatty acid
same,effect of supplementation after exercise on metabolism of free fatty acid,healthy male volunteers [1]; [17],no significant difference
same,blood lactate levels,"healthy male volunteers [2]; Relax (DR), Post-exercise 0 h",2.39 mmol/L
same,blood lactate levels,healthy male volunteers [2]; [3],2.25 mmol/L
same,blood lactate levels,"healthy male volunteers [2]; Relax (DR), Post-exercise 1 h",3.00 mmol/L
same,blood lactate levels,"healthy male volunteers [2]; Relax (DR), Post-exercise 2 h",2.52 mmol/L
same,blood lactate levels,"healthy male volunteers [2]; Relax (DR), Post-exercise 24 h",2.26 mmol/L
same,blood lactate levels,"healthy male volunteers [2]; Relax (DR), Post-exercise 48 h",2.71 mmol/L
same,blood lactate levels,"healthy male volunteers [2]; Relax (DR), Post-exercise 72 h",2.22 mmol/L
same,blood lactate levels,healthy male volunteers [2]; [4],2.41 mmol/L
same,blood lactate levels,healthy male volunteers [2]; [5],2.41 mmol/L
same,blood lactate levels,"healthy male volunteers [2]; Relax (DR), Prior to exercise",2.54 mmol/L
same,blood lactate levels,healthy male volunteers [2]; [6],7.07 mmol/L
same,blood lactate levels,healthy male volunteers [2]; [7],3.20 mmol/L
same,blood lactate levels,healthy male volunteers [2]; [8],2.96 mmol/L
same,blood lactate levels,healthy male volunteers [2]; [9],2.9 mmol/L
same,blood lactate levels,healthy male volunteers [2]; [10],2.39 mmol/L
same,blood lactate levels,healthy male volunteers [2]; [11],2.77 mmol/L
same,blood lactate levels,healthy male volunteers [2]; [12],2.18 mmol/L
same,blood lactate levels,healthy male volunteers [2]; [13],2.53 mmol/L
same,blood lactate levels,healthy male volunteers [2]; [14],2.23 mmol/L
same,blood lactate levels,healthy male volunteers [2]; [15],2.50 mmol/L
same,effect of supplementation after exercise on metabolism of blood lactate,healthy male volunteers [2]; [16],did not affect the metabolism of blood lactate
same,effect of supplementation after exercise on metabolism of blood lactate,healthy male volunteers [2]; [17],no significant difference
